In the supplement of paper PMC10307832:

What was measured:
Assay in all cases: relative viability (nuclei count vs DMSO), 5 days (fraction); higher = more cells survive
[1] = tested on: CAL-12T
In short: (§1)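 Nuclei were stained with Hoechst during a one-step fixation (final 0.05% Triton X-100, 1% formaldehyde, 1 ug/ml Hoechst) carried out 5 days after dosing, then counted on 4× images. The cells, lung cancer lines in 1536-well plates, had been dosed by pin tool the day after seeding with one drug alone or a fixed anchor-drug dose plus five library-drug doses (not always all listed) in √10 steps. Relative viability is the nuclei count in treated wells divided by that in vehicle wells, and each value is the median of duplicate plates.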

[2] = tested on: HCC-44
In short: as §1

[3] = tested on: COR-L23
In short: as §1

[4] = tested on: PC-14
In short: as §1

[5] = tested on: LU99A
In short: as §1

[6] = tested on: NCI-H522
In short: as §1

[7] = tested on: HCC-15
In short: as §1

[8] = tested on: NCI-H2087
In short: as §1

[9] = tested on: SK-MES-1
In short: as §1

[10] = tested on: HARA
In short: as §1

[11] = tested on: NCI-H2170
In short: as §1

[12] = tested on: LC-2-ad
In short: as §1

[13] = tested on: HCC-827
In short: as §1

[14] = tested on: HOP-62
In short: as §1

[15] = tested on: LXF-289
In short: as §1

[16] = tested on: LCLC-97TM1
In short: as §1

[17] = tested on: COR-L 105
In short: as §1

[18] = tested on: NCI-H1993
In short: as §1

[19] = tested on: NCI-H2009
In short: as §1

[20] = tested on: NCI-H2126
In short: as §1

[21] = tested on: PC-3 [JPC-3]
In short: as §1

COCC1(CO)C(=O)C2CCN1CC2 (stereo not drawn) [PRIMA-1MET] + CCNC(=O)c1noc(-c2cc(C(C)C)c(O)cc2O)c1-c1ccc(CN2CCOCC2)cc1 [Luminespib] (partner 0.01 µM)
relative viability ([1]; first compound 0.2 µM): 0.363
relative viability ([1]; first compound 0.6325 µM): 0.383
relative viability ([1]; first compound 2 µM): 0.547
relative viability ([1]; first compound 6.325 µM): 0.918
relative viability ([1]; first compound 20 µM): 0.166
relative viability ([2]; first compound 0.2 µM): 1.36
relative viability ([2]; first compound 0.6325 µM): 0.964
relative viability ([2]; first compound 2 µM): 0.817
relative viability ([2]; first compound 6.325 µM): 1.14
relative viability ([2]; first compound 20 µM): 0.896
relative viability ([3]; first compound 0.2 µM): 0.691
relative viability ([3]; first compound 0.6325 µM): 0.528
relative viability ([3]; first compound 2 µM): 0.711
relative viability ([3]; first compound 6.325 µM): 0.578
relative viability ([3]; first compound 20 µM): 0.0159
relative viability ([4]; first compound 0.2 µM): 0.137
relative viability ([4]; first compound 0.6325 µM): 0.176
relative viability ([4]; first compound 2 µM): 0.169
relative viability ([4]; first compound 6.325 µM): 0.182
relative viability ([4]; first compound 20 µM): 0.129
relative viability ([5]; first compound 0.2 µM): 0.216
relative viability ([5]; first compound 0.6325 µM): 0.233
relative viability ([5]; first compound 2 µM): 0.203
relative viability ([5]; first compound 6.325 µM): 0.221
relative viability ([5]; first compound 20 µM): 0.0965
relative viability ([6]; first compound 0.2 µM): 1.09
relative viability ([6]; first compound 0.6325 µM): 0.899
relative viability ([6]; first compound 2 µM): 1.1
relative viability ([6]; first compound 6.325 µM): 0.989
relative viability ([6]; first compound 20 µM): 0.838
relative viability ([7]; first compound 0.2 µM): 0.264
relative viability ([7]; first compound 0.6325 µM): 0.232
relative viability ([7]; first compound 2 µM): 0.393
relative viability ([7]; first compound 6.325 µM): 0.408
relative viability ([7]; first compound 20 µM): 0.197
relative viability ([8]; first compound 0.2 µM): 0.167
relative viability ([8]; first compound 0.6325 µM): 0.17
relative viability ([8]; first compound 2 µM): 0.153
relative viability ([8]; first compound 6.325 µM): 0.181
relative viability ([8]; first compound 20 µM): 0.0951
relative viability ([9]; first compound 0.2 µM): 1.04
relative viability ([9]; first compound 0.6325 µM): 0.579
relative viability ([9]; first compound 2 µM): 0.885
relative viability ([9]; first compound 6.325 µM): 0.829
relative viability ([9]; first compound 20 µM): 0.746
relative viability ([10]; first compound 0.2 µM): 0.619
relative viability ([10]; first compound 0.6325 µM): 0.0534
relative viability ([10]; first compound 6.325 µM): 0.675
relative viability ([10]; first compound 20 µM): 0.654
relative viability ([11]; first compound 0.2 µM): 1.06
relative viability ([11]; first compound 0.6325 µM): 0.545
relative viability ([11]; first compound 2 µM): 0.557
relative viability ([11]; first compound 6.325 µM): 0.68
relative viability ([11]; first compound 20 µM): 0.667
relative viability ([12]; first compound 0.2 µM): 1.26
relative viability ([12]; first compound 2 µM): 0.902
relative viability ([12]; first compound 6.325 µM): 1.16
relative viability ([12]; first compound 20 µM): 0.887
relative viability ([13]; first compound 0.2 µM): 0.761
relative viability ([13]; first compound 0.6325 µM): 0.624
relative viability ([13]; first compound 2 µM): 0.303
relative viability ([13]; first compound 6.325 µM): 0.477
relative viability ([13]; first compound 20 µM): 0.447
relative viability ([14]; first compound 0.2 µM): 0.989
relative viability ([14]; first compound 0.6325 µM): 0.923
relative viability ([14]; first compound 2 µM): 0.923
relative viability ([14]; first compound 6.325 µM): 0.91
relative viability ([14]; first compound 20 µM): 0.786
relative viability ([15]; first compound 0.2 µM): 0.878
relative viability ([15]; first compound 0.6325 µM): 0.673
relative viability ([15]; first compound 2 µM): 0.74
relative viability ([15]; first compound 6.325 µM): 0.712
relative viability ([15]; first compound 20 µM): 0.624
relative viability ([16]; first compound 0.2 µM): 0.824
relative viability ([16]; first compound 0.6325 µM): 0.531
relative viability ([16]; first compound 2 µM): 0.877
relative viability ([16]; first compound 6.325 µM): 0.841
relative viability ([16]; first compound 20 µM): 0.674
relative viability ([17]; first compound 0.2 µM): 0.775
relative viability ([17]; first compound 0.6325 µM): 0.687
relative viability ([17]; first compound 2 µM): 0.845
relative viability ([17]; first compound 6.325 µM): 0.808
relative viability ([17]; first compound 20 µM): 0.111
relative viability ([18]; first compound 0.2 µM): 1.04
relative viability ([18]; first compound 0.6325 µM): 0.829
relative viability ([18]; first compound 2 µM): 0.959
relative viability ([18]; first compound 6.325 µM): 0.996
relative viability ([18]; first compound 20 µM): 0.758
relative viability ([19]; first compound 0.2 µM): 0.981
relative viability ([19]; first compound 0.6325 µM): 0.97
relative viability ([19]; first compound 2 µM): 1.1
relative viability ([19]; first compound 6.325 µM): 1.04
relative viability ([19]; first compound 20 µM): 0.307
relative viability ([20]; first compound 0.2 µM): 0.963
relative viability ([20]; first compound 0.6325 µM): 0.867
relative viability ([20]; first compound 2 µM): 0.89
relative viability ([20]; first compound 6.325 µM): 0.929
relative viability ([20]; first compound 20 µM): 0.885
relative viability ([21]; first compound 0.2 µM): 0.849
relative viability ([21]; first compound 0.6325 µM): 0.649
relative viability ([21]; first compound 2 µM): 0.679
relative viability ([21]; first compound 6.325 µM): 0.731
relative viability ([21]; first compound 20 µM): 0.546
